From patent US20070117770A1, “Human ribosomal DNA (rDNA) and ribosomal RNA (rRNA) nucleic acids and uses thereof” (Cylene Pharmaceuticals, Inc., priority 2005, published 2007)

Experiments:
Experiment in all cases: Protein kinase inhibition assay
Format in all cases: biochemical
[1] = target: Axl(h) (Homo sapiens, UniProt P30530); conditions: read-out: percent residual activity of Axl(h)
Method: (§1) Certain compounds were tested for activity in protein kinase inhibition assays. All substrates were dissolved and diluted to working stocks in de-ionized water, apart from histone H1 (10× working stock in 20 mM MOPS pH 7.0), PDKtide (10× working stock in 50 mM Tris pH 7.0) ATF2 (which is typically stored at a 20× working stock in 50 mM Tris pH 7.5, 150 mM NaCl, 0.1 mM EGTA, 0.03% Brij-35, 50% glycerol, 1 mM benzamidine, 0.2 mM PMSF and 0.1% R-mercaptoethanol), KKLNRTLSFAEPG (SEQ ID NO:203) and RRRLSFAEPG (SEQ ID NO:204) (50 mM HEPES pH 7.4) and GGEEEEYFELVKKKK (SEQ ID NO:205) (20 mM MOPS pH 7.0). All kinases were pre-diluted to a 10× working concentration prior to addition into the assay. The composition of the dilution buffer for each kinase is detailed below.
(§2) In a final reaction volume of 25 μl, Axl (h) (5-10 mU) is incubated with 8 mM MOPS pH 7.0, 0.2 mM EDTA, 250 μM KKSRGDYMTMQIG (SEQ ID NO:210), 10 mM MgAcetate and [y-33P-ATP] (specific activity approx. 500 cpm/pmol, concentration as required). The reaction is initiated by the addition of the MgATP mix. After incubation for 40 minutes at room temperature, the reaction is stopped by the addition of 5 μl of a 3% phosphoric acid solution. 10 μl of the reaction is then spotted onto a P30 filtermat and washed three times for 5 minutes in 75 mM phosphoric acid and once in methanol prior to drying and scintillation counting.

[2] = target: Pyk2(h) (Homo sapiens, UniProt Q14289); conditions: read-out: percent residual activity of Pyk2(h)
Method: as §1
as §2, with “Pyk2” for “Axl”, “0.1 mg/ml poly(Glu, Tyr) 4:1,” for “250 μM KKSRGDYMTMQIG (SEQ ID NO:210),”, “[gamma-33P-ATP]” for “[y-33P-ATP]”, “Filtermat A” for “P30 filtermat”

[3] = target: Fyn(h) (Homo sapiens, UniProt P06241); conditions: read-out: percent residual activity of Fyn(h)
Method: as §1
In a final reaction volume of 25 μl, Fyn (h) (5-10 mU) is incubated with 50 mM Tris pH 7.5, 0.1 mM EGTA, 0.1 mM Na3VO4, 250 μM KVEKIGEGTYGVVYK (SEQ ID NO:220) (Cdc2 peptide), 10 mM MgAcetate and [gamma-33P-ATP] (specific activity approx. 500 cpm/pmol, concentration as required). The reaction is initiated by the addition of the MgATP mix. After incubation for 40 minutes at room temperature, the reaction is stopped by the addition of 5 μl of a 3% phosphoric acid solution. […]

[4] = target: cKit(h) (Homo sapiens, UniProt P10721); conditions: read-out: percent residual activity of cKit(h)
Method: as §1
as §2, with “cKit” for “Axl”, “10 mM MnCl2, 0.1 mg/ml poly(Glu, Tyr) 4:1,” for “250 μM KKSRGDYMTMQIG (SEQ ID NO:210),”, “[gamma-33P-ATP]” for “[y-33P-ATP]”, “Filtermat A” for “P30 filtermat”

[5] = target: Bmx(h) (Homo sapiens, UniProt P51813); conditions: read-out: percent residual activity of Bmx(h)
Method: as §1
as §2, with “Bmx” for “Axl”, “0.1 mg/ml poly(Glu, Tyr) 4:1,” for “250 μM KKSRGDYMTMQIG (SEQ ID NO:210),”, “[gamma-33P-ATP]” for “[y-33P-ATP]”, “Filtermat A” for “P30 filtermat”

[6] = target: Rsk2(h) (Homo sapiens, UniProt P51812); conditions: read-out: percent residual activity of Rsk2(h)
Method: as §1
as §2, with “Rsk2” for “Axl”, “30” for “250”, “KKKNRTLSVA” for “KKSRGDYMTMQIG”, “NO:212),” for “NO:210),”, “[gamma-33P-ATP]” for “[y-33P-ATP]”

Sequence of Bmx(h) (P51813 whole entry): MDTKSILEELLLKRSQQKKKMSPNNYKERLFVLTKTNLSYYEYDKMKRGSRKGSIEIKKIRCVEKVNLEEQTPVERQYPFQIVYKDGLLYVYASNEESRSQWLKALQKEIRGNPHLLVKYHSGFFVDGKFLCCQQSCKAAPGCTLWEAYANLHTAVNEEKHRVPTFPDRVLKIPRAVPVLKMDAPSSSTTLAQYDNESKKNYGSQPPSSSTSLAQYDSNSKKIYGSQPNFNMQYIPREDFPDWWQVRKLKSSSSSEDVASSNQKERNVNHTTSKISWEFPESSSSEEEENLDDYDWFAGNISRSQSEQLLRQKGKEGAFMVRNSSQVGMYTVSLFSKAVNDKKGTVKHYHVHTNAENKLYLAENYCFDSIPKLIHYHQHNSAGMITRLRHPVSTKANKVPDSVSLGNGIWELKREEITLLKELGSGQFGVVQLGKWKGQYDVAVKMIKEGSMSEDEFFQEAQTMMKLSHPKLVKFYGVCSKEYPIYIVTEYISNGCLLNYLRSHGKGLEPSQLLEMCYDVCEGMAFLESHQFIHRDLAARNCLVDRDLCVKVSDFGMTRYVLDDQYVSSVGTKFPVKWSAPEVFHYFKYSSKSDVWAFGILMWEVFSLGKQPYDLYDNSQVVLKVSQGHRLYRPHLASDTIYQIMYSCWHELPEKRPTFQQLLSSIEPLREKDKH
Sequence of Fyn(h) (P06241 whole entry): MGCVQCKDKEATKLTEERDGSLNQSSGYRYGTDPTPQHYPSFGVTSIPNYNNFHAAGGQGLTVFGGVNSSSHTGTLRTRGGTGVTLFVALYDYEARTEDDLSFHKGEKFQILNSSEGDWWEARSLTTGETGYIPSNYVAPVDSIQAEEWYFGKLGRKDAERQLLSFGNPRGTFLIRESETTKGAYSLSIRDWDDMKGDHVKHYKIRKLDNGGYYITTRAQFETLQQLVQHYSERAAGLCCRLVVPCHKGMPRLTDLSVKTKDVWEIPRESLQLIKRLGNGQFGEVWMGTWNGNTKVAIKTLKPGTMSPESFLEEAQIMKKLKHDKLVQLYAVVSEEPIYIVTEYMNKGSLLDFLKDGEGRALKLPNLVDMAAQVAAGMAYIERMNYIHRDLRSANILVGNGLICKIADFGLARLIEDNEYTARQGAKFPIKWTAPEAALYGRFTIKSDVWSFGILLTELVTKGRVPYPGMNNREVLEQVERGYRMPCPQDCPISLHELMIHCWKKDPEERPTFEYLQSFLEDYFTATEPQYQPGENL
Sequence of Rsk2(h) (P51812 whole entry): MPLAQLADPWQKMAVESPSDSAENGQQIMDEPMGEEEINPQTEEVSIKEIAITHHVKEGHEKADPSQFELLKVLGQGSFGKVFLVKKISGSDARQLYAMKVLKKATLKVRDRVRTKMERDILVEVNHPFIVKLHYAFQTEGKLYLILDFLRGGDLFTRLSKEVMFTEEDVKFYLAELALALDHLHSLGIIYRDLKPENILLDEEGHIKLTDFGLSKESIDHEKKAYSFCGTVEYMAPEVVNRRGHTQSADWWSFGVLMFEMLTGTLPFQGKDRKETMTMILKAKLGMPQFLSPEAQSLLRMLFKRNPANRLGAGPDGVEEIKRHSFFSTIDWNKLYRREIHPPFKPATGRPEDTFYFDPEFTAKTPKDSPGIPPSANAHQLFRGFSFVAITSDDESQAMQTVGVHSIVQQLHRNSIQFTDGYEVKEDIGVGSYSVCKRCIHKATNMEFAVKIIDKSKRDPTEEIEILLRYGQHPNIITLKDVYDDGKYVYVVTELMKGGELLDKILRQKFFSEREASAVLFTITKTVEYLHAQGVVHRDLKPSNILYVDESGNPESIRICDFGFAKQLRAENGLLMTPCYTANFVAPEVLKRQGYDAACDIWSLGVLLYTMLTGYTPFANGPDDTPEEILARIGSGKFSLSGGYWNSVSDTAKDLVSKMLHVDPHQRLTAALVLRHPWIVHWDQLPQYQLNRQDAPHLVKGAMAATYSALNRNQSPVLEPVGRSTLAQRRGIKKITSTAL
Sequence of Pyk2(h) (Q14289 whole entry): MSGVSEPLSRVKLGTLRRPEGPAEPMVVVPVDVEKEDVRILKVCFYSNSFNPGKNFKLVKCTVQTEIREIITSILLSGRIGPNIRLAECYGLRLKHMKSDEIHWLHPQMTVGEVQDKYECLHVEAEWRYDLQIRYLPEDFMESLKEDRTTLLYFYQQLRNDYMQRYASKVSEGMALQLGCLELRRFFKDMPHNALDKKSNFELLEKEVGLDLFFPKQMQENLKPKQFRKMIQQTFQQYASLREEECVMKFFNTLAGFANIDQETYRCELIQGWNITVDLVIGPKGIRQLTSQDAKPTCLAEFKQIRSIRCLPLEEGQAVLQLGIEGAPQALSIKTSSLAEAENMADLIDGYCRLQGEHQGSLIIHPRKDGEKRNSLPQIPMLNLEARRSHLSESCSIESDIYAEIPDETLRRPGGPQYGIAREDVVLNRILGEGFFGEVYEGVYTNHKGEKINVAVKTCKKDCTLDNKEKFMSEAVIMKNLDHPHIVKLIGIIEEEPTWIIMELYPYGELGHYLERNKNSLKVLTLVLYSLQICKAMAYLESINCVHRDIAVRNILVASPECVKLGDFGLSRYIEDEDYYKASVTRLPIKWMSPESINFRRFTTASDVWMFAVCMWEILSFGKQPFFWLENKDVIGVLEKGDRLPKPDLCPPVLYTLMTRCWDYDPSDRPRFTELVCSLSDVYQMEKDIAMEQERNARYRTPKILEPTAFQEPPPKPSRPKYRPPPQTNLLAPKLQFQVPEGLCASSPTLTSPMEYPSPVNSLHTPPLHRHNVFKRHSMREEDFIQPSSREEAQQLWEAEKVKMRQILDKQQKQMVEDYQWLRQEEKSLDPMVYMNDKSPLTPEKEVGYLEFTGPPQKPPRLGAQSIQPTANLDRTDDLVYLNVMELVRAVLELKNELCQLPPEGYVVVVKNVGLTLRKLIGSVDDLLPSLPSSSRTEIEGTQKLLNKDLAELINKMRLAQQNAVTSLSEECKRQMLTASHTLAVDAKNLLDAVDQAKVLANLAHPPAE
Sequence of cKit(h) (P10721 26-976): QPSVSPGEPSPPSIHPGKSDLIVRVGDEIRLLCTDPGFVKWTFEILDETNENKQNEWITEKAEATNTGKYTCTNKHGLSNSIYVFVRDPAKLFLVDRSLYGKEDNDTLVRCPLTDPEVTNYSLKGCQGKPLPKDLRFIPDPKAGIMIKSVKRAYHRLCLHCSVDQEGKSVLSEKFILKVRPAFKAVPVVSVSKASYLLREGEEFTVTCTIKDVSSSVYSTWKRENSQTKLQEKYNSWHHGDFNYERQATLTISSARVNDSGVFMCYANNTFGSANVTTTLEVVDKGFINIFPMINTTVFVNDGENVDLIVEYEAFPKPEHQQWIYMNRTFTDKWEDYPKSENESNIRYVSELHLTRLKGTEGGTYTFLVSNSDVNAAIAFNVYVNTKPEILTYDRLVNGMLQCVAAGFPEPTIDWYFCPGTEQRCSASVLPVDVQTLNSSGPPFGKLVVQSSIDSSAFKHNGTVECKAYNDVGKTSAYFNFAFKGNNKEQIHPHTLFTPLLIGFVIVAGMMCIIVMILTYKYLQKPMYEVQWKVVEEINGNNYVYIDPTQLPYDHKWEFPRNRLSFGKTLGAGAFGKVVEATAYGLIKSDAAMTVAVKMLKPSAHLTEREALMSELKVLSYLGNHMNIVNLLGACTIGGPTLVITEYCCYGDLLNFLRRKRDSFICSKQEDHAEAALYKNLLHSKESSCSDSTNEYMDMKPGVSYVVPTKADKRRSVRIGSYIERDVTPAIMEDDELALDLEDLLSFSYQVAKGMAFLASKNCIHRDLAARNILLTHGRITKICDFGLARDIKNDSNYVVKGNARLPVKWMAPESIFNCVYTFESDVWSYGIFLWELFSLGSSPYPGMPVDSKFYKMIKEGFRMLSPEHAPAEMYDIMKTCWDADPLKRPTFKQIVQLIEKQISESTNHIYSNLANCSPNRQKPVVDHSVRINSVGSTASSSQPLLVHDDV
Sequence of Axl(h) (P30530 26-894): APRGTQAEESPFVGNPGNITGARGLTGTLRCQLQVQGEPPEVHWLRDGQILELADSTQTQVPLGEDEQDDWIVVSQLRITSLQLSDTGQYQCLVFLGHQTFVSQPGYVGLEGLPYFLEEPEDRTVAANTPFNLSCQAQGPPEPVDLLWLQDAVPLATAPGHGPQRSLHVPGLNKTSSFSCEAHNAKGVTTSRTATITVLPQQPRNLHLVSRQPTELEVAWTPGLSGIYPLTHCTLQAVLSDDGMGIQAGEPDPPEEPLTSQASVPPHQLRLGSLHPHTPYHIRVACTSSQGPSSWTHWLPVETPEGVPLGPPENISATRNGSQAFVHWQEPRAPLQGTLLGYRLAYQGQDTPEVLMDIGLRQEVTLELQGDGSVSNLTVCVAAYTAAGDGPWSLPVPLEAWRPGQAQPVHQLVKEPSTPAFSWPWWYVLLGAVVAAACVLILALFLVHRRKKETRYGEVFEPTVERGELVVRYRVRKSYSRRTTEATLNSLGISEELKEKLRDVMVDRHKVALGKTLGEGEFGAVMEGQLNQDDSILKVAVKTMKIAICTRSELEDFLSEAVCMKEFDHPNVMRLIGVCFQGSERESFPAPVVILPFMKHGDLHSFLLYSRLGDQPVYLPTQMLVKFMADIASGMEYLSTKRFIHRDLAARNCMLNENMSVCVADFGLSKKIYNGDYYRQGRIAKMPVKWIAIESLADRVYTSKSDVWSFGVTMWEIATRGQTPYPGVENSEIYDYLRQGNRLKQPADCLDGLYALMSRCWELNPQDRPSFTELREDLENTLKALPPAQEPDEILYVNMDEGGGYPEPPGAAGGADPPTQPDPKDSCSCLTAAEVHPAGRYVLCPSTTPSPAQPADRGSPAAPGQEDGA

SMILES | remaining activity at 2.5 µM [1] [%] | remaining activity at 2.5 µM [2] [%] | remaining activity at 2.5 µM [3] [%] | remaining activity at 2.5 µM [4] [%] | remaining activity at 2.5 µM [5] [%] | remaining activity at 2.5 µM [6] [%]
CN1CCCC1CCNC(=O)c1cn2c3c(c(N4CCC(c5cnccn5)C4)c(F)cc3c1=O)Oc1cc3ccccc3cc1-2 (stereo not drawn) [Compound A-1] | 75 | 95 | 97 | 111 | 68 | 60
CC(=O)N1CCN(c2ccc3c(=O)c(C(=O)NCCN4CCCC4)c4n(C)c5ccccc5n4c3n2)CC1 [Compound B-1] | 102 | 105 | 85 | 114 | 105 | 106
